The values that follow come from US7612049B2, “Method of inhibition the growth of algae” (priority 2007, dated 2009).

What all share (format): cell-based
The subject of one test is Microcystis flos-aquae. Briefly: Growth inhibition of Cyanobacteria, chlorophyll-a content. As to the method:
(§1) The solution of the control and sample I were centrifuged at 10000 rpm at 20° C. for 3 hours, and then the supernatant were poured out. Next, two 10 ml portions of 95% (v/v) ethanol were added to sample I and the control and mixed with the residues. Next, the solution of sample I and the control were water-bathed in 60° C. water for 30 mins to extract Chlorophyll-a. When being bathed in the water, the solution of the control and sample I were shaken every ten minutes. After that, the solutions were centrifuged at 5000 G at 20° C. for 15 minutes and the supernatants were kept. Then, the absorbance at 665 nm of the control and sample I were detected. Finally, according to the “Standard Methods for the Examination Chlorophyll-a in Water-Ethanol Extraction” issued by National Indian Education Association, Taiwan (NIEA E508.00B), the absorbance at 665 nm of the control and sample I were calibrated and the concentration of Chlorophyll-a content can be calculated by the absorbance measure.
(§2) To verify whether Cyanobacteria can be inhibited by glucosamine or not, in the following embodiment, two kinds of toxic Cyanobacteria, Microcystis aeruginosa and […]. The detailed procedures are described below.
(§3) First, four 50 ml portions of water with Microcystis aeruginosa were obtained and labeled as control and sample II, sample III, and sample IV respectively. The weight concentration of Microcystis aeruginosa cell in these four samples 883 μg/L (ppb). Next, different amount of glucosamine was added into the three samples so that the concentrations of glucosamine in samples II, III, and IV were 10 ppm, 20 ppm, and 50 ppm, respectively. After that, the control and sample II, III, and IV were cultured for 14 days with Bold's medium, and the Chlorophyll-a content of each sample were detected every 7 days. The procedures of detecting Chlorophyll-a content was the same as mentioned in embodiment I and the whole process was repeated for testing Microcystis flos-aquae.

The test system of the next test is Microcystis aeruginosa. The test is described as above. As for the experimental part: as §1, §2, §3
Test [1] relates to fishpond water algae, especially abundant in Chlorophyta. Briefly: Growth inhibition of algae in fishpond water, chlorophyll-a content by spectrometry. Conditions: 100 ppm glucosamine. As for the experimental part:
In order to test if glucosamine inhibited the growth of algae or not, in the following embodiment, glucosamine was added to samples and then observed. Moreover, since chlorophyll-a content of algae is widely used as an indicator of the quality of freshwater bodies and the abundance of algae, the chlorophyll-a content in the sample was detected by spectrometry.
First, two 20 ml portions of water were obtained from a fishpond which contains a varieties of algae and is especially abundant in Chlorophyta. Both portions of water were labeled as control and sample I respectively. Next, 100 ppm glucosamine was added in sample I, and then the control and sample I were cultured for 28 days with Bold's medium.
The solution of the control and sample I were centrifuged at 10000 rpm at 20° C. for 3 hours, and then the supernatant were poured out. Next, two 10 ml portions of 95% (v/v) ethanol were added to sample I and the control and mixed with the residues. […] Then, the absorbance at 665 nm of the control and sample I were detected. Finally, according to the “Standard Methods for the Examination Chlorophyll-a in Water-Ethanol Extraction” issued by National Indian Education Association, Taiwan (NIEA E508.00B), the absorbance at 665 nm of the control and sample I were calibrated and the concentration of Chlorophyll-a content can be calculated by the absorbance measure.

Where [2] appears, read: Microcystis aeruginosa, 336 h, read-out: Inhibition efficiency (after 14 days).

In general, inhibition refers to the share of the control response that was lost under treatment. Turning to `N[C@H]1C(O)O[C@H](CO)[C@@H](O)[C@@H]1O` (stereo partly drawn) [glucosamine], the Chlorophyll-a content in the test on Microcystis flos-aquae (10 ppm glucosamine (Sample V), 7th day, control 178 ppb) came to 0 ppb; in the test on Microcystis flos-aquae (10 ppm glucosamine (Sample V), 14th day, control 438 ppb) it was 225 ppb; with Microcystis flos-aquae (20 ppm glucosamine (Sample VI), 7th day, control 178 ppb), 3 ppb; in the test with Microcystis flos-aquae (20 ppm glucosamine (Sample VI), 14th day, control 438 ppb), 142 ppb; with Microcystis flos-aquae (50 ppm glucosamine (Sample VII), 7th day, control 178 ppb) it was 15 ppb; with Microcystis flos-aquae (50 ppm glucosamine (Sample VII), 14th day, control 438 ppb) it was 92 ppb. Also, the Chlorophyll-a content turned out to be 80 ppb in the test with Microcystis aeruginosa (10 ppm glucosamine (Sample II), 7th day, control 270 ppb); 1922 ppb in the test with Microcystis aeruginosa (10 ppm glucosamine (Sample II), 14th day, control 2657 ppb); 65 ppb with Microcystis aeruginosa (20 ppm glucosamine (Sample III), 7th day, control 270 ppb); 1004 ppb in the test with Microcystis aeruginosa (20 ppm glucosamine (Sample III), 14th day, control 2657 ppb); 41 ppb with Microcystis aeruginosa (50 ppm glucosamine (Sample IV), 7th day, control 270 ppb); 72.3 ppb with Microcystis aeruginosa (50 ppm glucosamine (Sample IV), 14th day, control 2657 ppb). Also, the inhibition at 10 ppm with Microcystis flos-aquae (Microcystis flos-aquae, 336 h, 10 ppm glucosamine (Sample V), read-out: Inhibition efficiency (after 14 days)) was 48.6%; in the test with Microcystis aeruginosa (setting [2]) it was 27.6%. Further, the inhibition at 20 ppm with Microcystis flos-aquae (Microcystis flos-aquae, 336 h, 20 ppm glucosamine (Sample VI), read-out: Inhibition efficiency (after 14 days)) stood at 67.5%; in the test on Microcystis aeruginosa (setting [2]), 62.2%. Moreover, the inhibition at 50 ppm is 78.9% with Microcystis flos-aquae (Microcystis flos-aquae, 336 h, 50 ppm glucosamine (Sample VII), read-out: Inhibition efficiency (after 14 days)) and 97.2% with Microcystis aeruginosa (setting [2]). In addition, the “minimum effective amount of glucosamine” value with Microcystis aeruginosa (10 ppm divided by 0.883 mg (weight concentration of Cyanobacteria 0.883 mg/L)) is given as “at least 10 ppm/mg algae”. The “algae bloom observed after culture” value in test [1] (28 days, Bold's medium) is reported as “the algae in the control bloomed, but not sample I”. In test [1] (cultured 28 days with Bold's medium, control 652 ppb), the “concentration of Chlorophyll-a content” value worked out at 74 ppb.
